Source: US11680264B2, “Methods of modulating melanosome pH and melanin level in cells” (Cornell University, priority 2016, dated 2023)

How the values were obtained:
[1] = tested on: sAC^KO mouse melanocytes; assay: DAMP melanosome pH assay (HMB45 co-staining); format: cell-based; settings: 4 hours; for melanosome pH (DAMP), substance alone: KH7 30 μM, cAMP analogs 500 μM, ESI-09 10 μM, MSH 100 nM; for effect on cAMP-dependent rescue of melanosome pH (DAMP): co-incubation with cAMP [Sp-8-CPT-cAMPs], 10 μM
Procedure: (§1) N-{3-[(2,4-dinitrophenyl)amino]propyl}-N-(3-aminopropyl)methylamine dihydrochloride (DAMP) is a weakly basic amine that is taken up in acidic organelles of live cells and which has been used to measure melanosome pH (Bin et al., PLOS One, 10(6):e0129273 (2015); Tabata et al., Cell Tissue Res., 332(3): 447-460 (2008)). Cells were cultured on sterile glass coverslips in 24-mm wells at 50×10^3 cells/coverslip. […] After permeabilization with 0.1% Triton X-100 in Buffer A at −20° C., the cells were labeled with the supplied anti-DNP antibody (Oxford Biomedical Research) according to kit protocol. Melanosomes were identified using the monoclonal antibody (anti-HMB45, 1:40, Santa Cruz Biotechnology). Fluorescence was detected after secondary staining with Alexa Fluor 546 donkey anti-goat IgG antibody (Invitrogen) and Alexa Fluor 647 donkey anti-mouse IgG antibody (Invitrogen). All quantitative analyses were performed using the Object Count tool in Nikon AR 4.60. For each image, the lower intensity threshold limit of each fluorescence channel was defined as the intensity of the dimmest punctum returned using the 3 points circle threshold tool. The upper intensity threshold limit was set to the maximum value. Equivalent diameter (EqDiameter) was restricted to 1.85-30.00 pixels. Circularity was restricted to 0.20-1.00. Mean fluorescence intensity was measured for all DAMP^+ puncta. Melanosomes were identified as HMB45^+ puncta. DAMP measurements were only recorded when colocalized with HMB45. Frequency distributions were generated for each sample from mean DAMP fluorescence intensity of DAMP^+ melanosomes. All analyses were performed on two replicate coverslips (n≥15 cells per coverslip). Melanosomes were first identified as TRP1^+ or tyrosinase^+ puncta. sAC^+ melanosomes were identified as R52^+ or R21^+ puncta colocalizing with TRP1^+ or tyrosinase^+ puncta. The degree of colocalization between sAC and melanosomes was calculated as the number of sAC+ melanosomes divided by the total number of melanosomes and expressed as a percentage.
(§2) The effect of pharmacologic inhibition of sAC was also measured using the DAMP assay described above. Briefly, Cells were cultured on sterile glass coverslips in 24-mm wells at 50×10^3 cells/coverslip and treated or not treated for 4 hours with 30 μM KH7 or LRE1. […] After permeabilization with 0.1% Triton X-100 in Buffer A at −20° C., the cells were labeled with the supplied anti-DNP antibody (Oxford Biomedical Research) according to kit protocol. Melanosomes were identified using the monoclonal antibody (anti-HMB45, 1:40, Santa Cruz Biotechnology). Fluorescence was detected after secondary staining with Alexa Fluor 546 donkey anti-goat IgG antibody (Invitrogen) and Alexa Fluor 647 donkey anti-mouse IgG antibody (Invitrogen). All images were acquired using a Zeiss LSM 880 and analyzed using NIS-Elements AR 4.60 (Nikon).

[2] = tested on: sAC^FF mouse melanocytes; assay: DAMP melanosome pH assay (HMB45 co-staining); format: cell-based; settings: sAC^FF mouse melanocytes; for melanosome pH (DAMP uptake at HMB45 positive melanosomes), substance alone: 4 hours, KH7 30 μM, cAMP 500 μM, H89 10 μM, PKI 10 μM, ESI-09 10 μM
Procedure: as §1, §2

[3] = tested on: human melanocytes; assay: DAMP melanosome pH assay (HMB45 co-staining); format: cell-based; settings: for melanosome pH (DAMP), substance alone: 4 hours, KH7 30 μM, cAMP 500 μM, H89 10 μM, ESI-09 10 μM
Procedure: as §1
The effect of sAC inhibition on melanosome pH was also assessed in human melanocytes.

[4] = tested on: human melanocytes; assay: Cellular eumelanin content; format: cell-based; settings: 48 hours, KH7 30 μM, ESI-09 10 μM
Procedure: (§3) FIGS. 15A-15J provide the results of experiments analyzing the effect of sAC activity on melanin production. FIG. 15A is a graph illustrating the cellular eumelanin and pheomelanin content in sAC^FF (FF) and sAC^KO (KO) mouse melanocytes. Numbers above bars represent the ratio of pheomelanin to eumelanin. Average of triplicate determinations. FIG. 15B is a graph illustrating the cellular eumelanin content of sAC^FF and sAC^KO mouse melanocytes grown for 96 hours in the absence (−, DMSO) or presence of KH7 (+, 30 μM). Average of triplicate determinations. FIG. 15C is a graph illustrating the fold over baseline cellular eumelanin level of human melanocytes (n=8) treated with KH7 (30 μM) or vehicle (DMSO) for 48 hours. All assays performed in triplicate. Students t-test **P<0.01, ****P<0.0001. FIG. 15D is images of cell pellets of sAC^FF and sAC^KO mouse melanocytes. FIG. 15E is a graph of the melanin levels of pairs of sAC^FF and sAC^KO mouse melanocytes. FIGS. 15F and 15G are images of cell pellets of sAC^FF mouse melanocytes grown in the absence (DMSO, FIGS. 15G and 15F, left panels) or presence of KH7 (FIG. 15G, 30 μM, right panel) or LRE1 (FIG. 15F, 50 μM, right panel) for 96 hours. FIG. 15H is images of cell pellets of human melanocytes (C226, C38) treated with vehicle control (DMSO, left) or KH7 (30 μM, right) for 48 hours. FIG. 15I is images of cell pellets of human melanocytes (C226) treated with vehicle control (DMSO, left) or ESl-09 (10 μM, right) for 48 hours. FIG. 15J is a graph illustrating the fold over baseline cellular (eumelanin) level of human melanocytes treated with ESl-09 (10 μM) or vehicle (DMSO) for 48 hours (n=3, distinct human cell lines). For FIGS. 15E and 15J Students t-test, *p<0.05, **p<0.01, ****p<0.0001.

[5] = tested on: PKA targeted proteins; assay: Western blot of PKA substrate phosphorylation; format: cell-based; settings: mouse and human melanocytes, 4 hours
[6] = tested on: sAC^KO mouse melanocytes; assay: LysoSensor Yellow/Blue DND-160 organelle pH assay; format: cell-based; settings: 30 μM, 4 hours
Procedure: (§4) To determine the pH of the sAC^KO and sAC^FF melanocytes the pH-sensitive vital dye LysoSensor Yellow/Blue DND-160 (Bellono et al. Sci Rep., 6:26570 (2016)) was used. Briefly, cells were incubated with 1 μM LysoSensor DND-160 (Invitrogen) for 5 minutes at 37° C. Lysosensor was excited at 405 nm and its emission detected at 417-483 nm (W1) and 490-530 nm (W2). The ratio of emissions (W1/W2) in Lysosensor-stained puncta was assigned to a pH value based on a calibration curve generated for each experiment using solutions containing 125 mM KCl, 25 mM NaCl, 24 μM monensin, and varying concentrations of MES to adjust the pH to 4, 4.5, 5.0, 5.5, 6.0, 6.5, 7.0, 7.5. The fluorescence ratio was linear for pH 5.0-7.0.
as §4, with “The effect” for “To determine the pH”, “pharmacologic inhibition of sAC was examined using” for “the sAC^KO and sAC^FF melanocytes”, “vial” for “vital”, “assay, described above.” for “(Bellono et al. Sci Rep., 6:26570 (2016)) was used.”, “Briefly, cultured sAC^FF melanocytes were treated for 4 hours with 30 μM KH7, 30 μM LRE1, or control (untreated). The” for “Briefly,”

[7] = tested on: sAC^FF mouse melanocytes; assay: LysoSensor Yellow/Blue DND-160 organelle pH assay; format: cell-based; settings: 30 μM, 4 hours
Procedure: as §4
as §4, with “The effect” for “To determine the pH”, “pharmacologic inhibition of sAC was examined using” for “the sAC^KO and sAC^FF melanocytes”, “vial” for “vital”, “assay, described above.” for “(Bellono et al. Sci Rep., 6:26570 (2016)) was used.”, “Briefly, cultured sAC^FF melanocytes were treated for 4 hours with 30 μM KH7, 30 μM LRE1, or control (untreated). The” for “Briefly,”

[8] = tested on: C3H/HeJ mice; assay: Topical treatment of epilated back skin, hair pigmentation; format: in vivo, mouse
Procedure: Therefore, experiments were performed to determine whether inhibition of sAC in animals could alter hair pigmentation. Animal experiments were performed in accordance with approved Institutional Animal Care and Use Committee protocol at Weill Cornell Medicine. Age and gender matched C3H/HeJ mice (female, 7 weeks old) were purchased from The Jackson Laboratory. For the analysis of hair pigmentation, the upper and lower dorsum of each mouse were epilated using hair removal wax. 10 μl of KH7 (42 mg/ml in DMSO), LRE1 (28 mg/ml in DMSO) or DMSO (vehicle control) was topically applied onto the upper back and DMSO was applied to the lower back three times a day over two weeks. These mice were monitored for changes in coat color as the epilated hair grew back. Hair was removed from each treated area after 3 weeks to measure the length of the total hair, apical black tip and subapical agouti (pheomelanin) band under a stereo microscope. Mice were euthanized and the treated skin was submitted to a blinded animal pathologist for histological evaluation of the epidermis and hair follicles. This experiment was performed twice with 3-4 mice per cohort (total n=6-7)

[9] = tested on: C3H/HeJ mice; assay: Topical treatment of ear, epidermal pigmentation (Fontana Masson); format: in vivo, mouse; settings: topical on right ear, twice a day for two weeks
Procedure: Melanocytes also exist in the epidermis at specific areas of mouse skin (e.g., pinnae) (Nordlund et al., Dermatol Clin., 4(3): 407-418 (1986)); thus, these areas were studied to examine the role of sAC in epidermal pigmentation. For analysis of epidermal pigmentation, using C3H/HeJ mice as above, 20 μl of KH7 ([…]), LRE1 (28 mg/ml) or DMSO (vehicle control) was topically applied on the right ear and DMSO was topically applied on the left ear twice a day for two weeks. Ear skin was monitored daily for irritation and changes in pigmentation. After two weeks, mice were euthanized and the treated skin was submitted to a blinded animal pathologist for histological evaluation of the epidermis and special stains (Fontana Masson). This experiment was performed twice with 3 mice per cohort (total n=6)

[10] = tested on: sAC^KO mouse melanocytes; assay: Cellular eumelanin content; format: cell-based; settings: 96 hours
Procedure: as §3

[11] = tested on: sAC^FF mouse melanocytes; assay: Cellular eumelanin content; format: cell-based; settings: KH7 30 μM or LRE1 50 μM, 96 hours
Procedure: as §3

[12] = co-incubation with 30 μM KH7, 4 hours, cAMP analogs 500 μM, MSH 100 nM
[13] = topical on back, hair removed after 3 weeks

Compound: CO[C@H]1C2OP(=O)(O)OC[C@H]2O[C@H]1n1c(Sc2ccc(O)cc2)nc2c(N)ncnc21 (stereo partly shown) [8-pHPT-2′-O-Me-cAMP, 8-(4-Hydroxyphenylthio)-2′-O-methyladenosine-3′, 5′-cyclic monophosphate]
- melanosome pH (DAMP), substance alone [1]: sufficient to induce melanosome acidification
- effect on KH7-induced alkaline shift in melanosome pH (DAMP) [2, 12]: mitigate the KH7-induced alkalization of melanosome pH
- effect on KH7-induced alkaline shift in melanosome pH (DAMP) [3, 12]: mitigate the KH7-induced alkalization of melanosome pH

Compound: CC(C)(C)c1cc(C(=O)C(C#N)=NNc2cccc(Cl)c2)no1 [ESI-09, 3-(5-tert-butyl-isoxazol-3-yl)-2-((3-chlorophenyl)-hydrazono)-3-oxo-propionitrile]
- melanosome pH (DAMP), substance alone [1]: had no effect on melanosome pH
- melanosome pH (DAMP uptake at HMB45 positive melanosomes), substance alone [2]: elevated melanosome pH
- melanosome pH (DAMP), substance alone [3]: elevated melanosome pH
- eumelanin level [4]: induced an increase in eumelanin level

Compound: O=S(=O)(NCCNC/C=C/c1ccc(Br)cc1)c1cccc2cnccc12 [H89]
- effect on cAMP-dependent rescue of melanosome pH (DAMP) [1]: did not block the cAMP-dependent rescue of melanosome pH
- melanosome pH (DAMP uptake at HMB45 positive melanosomes), substance alone [2]: had no effect on melanosome pH
- phosphorylation of PKA targeted proteins [5]: dramatic reduction in the phosphorylation of PKA targeted proteins
- melanosome pH (DAMP), substance alone [3]: had no effect on melanosome pH

Compound: C[C@@H]1C[C@@H]([C@H](O)CC2CC(=O)NC(=O)C2)C(=O)[C@@H](C)C1 [cycloheximide]
- effect on cAMP-dependent rescue of melanosome pH (DAMP) [1]: did not block the ability of cAMP to rescue pH following sAC inhibition

Compound: LRE1
- pH of LysoSensor-visualized organelles [6]: had no effect
- pH of LysoSensor-visualized organelles [7]: induced an alkaline pH shift
- eumelanin production in hair (microscopic examination) [8, 13]: increase in eumelanin production
- length of the agouti (pheomelanin) band [8, 13]: reduction in length of the agouti (pheomelanin) band
- histologic examination of treated skin ([8]; topical on back, two weeks): did not reveal any pathological change to the hair follicles or epidermis
- colour of regrown hair versus vehicle control ([8]; topical on epilated back, 10 μl KH7 42 mg/ml or LRE1 28 mg/ml in DMSO, three times a day over two weeks): visual darkening of regrown hair
- colour of ear epidermis relative to vehicle control ([9]; 20 μl KH7 or LRE1 (28 mg/ml)): induced visual darkening of mouse ear epidermis
- epidermal melanin accumulation (Fontana Masson) [9]: increase in epidermal melanin accumulation
- eumelanin levels [10]: had no effect
- eumelanin levels [11]: increased eumelanin levels
